Drawing on ChEMBL document CHEMBL1782002, “Metachromins U-W: cytotoxic merosesquiterpenoids from an Australian specimen of the sponge Thorecta reticulata” (J Nat Prod, 2011), this text covers GI50 for 5 compounds.

The subject of one data set is HT-29. The data set can be described thus: Cytotoxicity against human HT-29 cells after 48 hrs by SRB assay. In kind it is functional. The following applies: HT-29, 48 h. Background: In SRB staining, fixed cells bind dye roughly in proportion to their protein.
The next data set relates to NCI-H460. The data set can be described thus: Cytotoxicity against human H460 cells after 48 hrs by SRB assay. It is filed as functional. The following applies: NCI-H460, 48 h.
Another data set concerns SF-268. As to the kind of experiment: Cytotoxicity against human SF268 cells after 48 hrs by SRB assay. It is filed as functional. The settings on record: SF-268, 48 h.
Data set [1] is described as follows: Cytotoxicity against […] cells after 48 hrs by SRB assay. It is filed as cell-based, Cricetulus griseus. The settings on record: chinese hamster, CHO-K1 cells.
Another data set has as its system MCF7. The data set can be described thus: Cytotoxicity against human MCF7 cells after 48 hrs by SRB assay. In kind it is functional. The settings on record: MCF7, 48 h.

Take `CC(=O)O[C@H]1C(=O)[C@@]2(C)[C@H]([C@H](OC(=O)c3ccccc3)[C@]3(O)C[C@H](OC(=O)[C@H](O)[C@@H](NC(=O)c4ccccc4)c4ccccc4)C(C)=C1C3(C)C)[C@]1(OC(C)=O)CO[C@@H]1C[C@@H]2O` [PACLITAXEL]: the GI50 stood at 0.012 µM in the data set with HT-29, 0.024 µM in the data set on NCI-H460, 0.012 µM in the data set with SF-268 and 0.012 µM in the data set with MCF7. The compound further displayed a concentration for 50% growth inhibition (GI50) at 48 h in data set [1] of 5.9 µM.

Regarding `CN[C@@H]1C[C@H]2O[C@@](C)([C@@H]1OC)n1c3ccccc3c3c4c(c5c6ccccc6n2c5c31)C(=O)NC4` [STAUROSPORINE], the concentration for 50% growth inhibition (GI50) in the data set on HT-29 came out at 3.6 µM; with NCI-H460, 3.6 µM; with SF-268, 0.044 µM; in the data set on MCF7, 11 µM. In addition, the GI50 at 48 h in data set [1] came out at 0.13 µM.

Consider `C=C1CCCC(C)(C)C1CCc1ccc2c(c1)C(=O)C=C(OC)C2=O` (stereo not given) [METACHROMIN W], for which the GI50 was determined as 130 µM in the data set on HT-29, 50 µM in the data set on NCI-H460, 104 µM with SF-268 and 107 µM in the data set with MCF7. The compound further had a GI50 at 48 h in data set [1] of 89 µM.

Turning to `C=C1CCCC(C)(C)C1CC/C(C)=C/Cc1cc(O)ccc1O` (stereo not given) [METACHROMIN V], the GI50 was determined as 10 µM with HT-29, 5.1 µM in the data set on NCI-H460, 5.1 µM in the data set with SF-268 and 3.2 µM in the data set on MCF7. Further, growth in data set [1] was halved (GI50 at 48 h) at 2.1 µM.

For `C=C1CCCC(C)(C)C1CCC1(C)C=Cc2cc(O)cc(OC)c2O1` (stereo not given) [METACHROMIN U], the GI50 with HT-29 turned out to be 30 µM; in the data set on NCI-H460, 37 µM; in the data set with SF-268, 32 µM; with MCF7 it was 29 µM. The GI50 at 48 h in data set [1] came out at 27 µM.

As usually defined, the GI50 is the concentration at which growth is held to half of that of the control. The low end stands for greater sensitivity of the cells, the high end for lower sensitivity of the cells.
